# Results: article PMC10033409, “Autoregulation of GPCR signalling through the third intracellular loop” (Nature, 2023)
# Where “and” joins values, the source holds several entries; their conditions need not be identical. Identical values can stand only once. Counter-ions that a name gives are not always drawn.
# Key:
# PTH1R [1] = molecular target: T1, PTH1R (Homo sapiens, UniProt Q03431); experiment: cAMP accumulation, PTH1R; assay type: cell-based; settings: PTH1R Wild-Type
# T1 construct: expressed in transfected cells; host or cells: HEK 293T
# T1 sequence (Q03431 27-593): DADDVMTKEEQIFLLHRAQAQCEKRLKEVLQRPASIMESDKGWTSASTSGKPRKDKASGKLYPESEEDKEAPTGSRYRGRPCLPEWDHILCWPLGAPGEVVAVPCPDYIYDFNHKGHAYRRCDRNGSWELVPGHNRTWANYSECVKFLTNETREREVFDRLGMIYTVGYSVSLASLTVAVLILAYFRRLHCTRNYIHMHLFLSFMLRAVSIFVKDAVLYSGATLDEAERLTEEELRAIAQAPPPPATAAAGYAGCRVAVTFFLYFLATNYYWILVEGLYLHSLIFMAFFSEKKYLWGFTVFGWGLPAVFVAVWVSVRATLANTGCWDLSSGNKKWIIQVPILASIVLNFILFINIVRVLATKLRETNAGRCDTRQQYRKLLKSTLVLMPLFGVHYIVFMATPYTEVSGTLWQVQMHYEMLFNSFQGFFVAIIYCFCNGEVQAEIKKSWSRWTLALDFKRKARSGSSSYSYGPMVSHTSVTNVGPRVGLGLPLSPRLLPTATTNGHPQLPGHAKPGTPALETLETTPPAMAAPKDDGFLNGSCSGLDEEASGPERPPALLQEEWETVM
# Description: (§1) One millilitre of medium was removed from each well containing transfected cells. The remaining volume was used to gently shear and resuspend the cells by pipetting. The cell mixture was centrifuged (3 min, 300g) and media was removed using a vacuum manifold. […] The cells were washed once by repeating this procedure.
# (§2) For all other second messenger assays, expression level and cell density of each condition was estimated through fluorescence. Fluorescence spectra for mCerulean (Horiba Fluoromax 4, excitation 430 nm, emission scan 450–600 nm, bandpass 4 nm) and mCitrine (Horiba Fluoromax 4, excitation 490 nm, emission scan 500–600 nm, bandpass 4 nm) were acquired for each condition. Cells were resuspended at 350,000 ± 30,000 fluorescence counts at a wavelength representing optical density of the sample (excitation 430 nm/emission 450 nm), corresponding with 2 × 10^6 ± 5 × 10^5 cells per m^l. This was confirmed by counting the cells on a haemocytometer (Countess II).
# (§3) Resuspended cells were added 1:1 with a 2× concentration of ligand (10 µl final) into an opaque 384-well flat bottom plate (Greiner Bio-One). […] For dose–response curves, a saturating concentration of forskolin (10 µM) was included as a control to measure cAMP stimulation independent of the transfected receptor. […] For all other experiments, plates were incubated at room temperature for 10 min. […] Reactions were quenched and processed for the cAMP-Glo Assay (Promega) following the manufacturer’s instructions. Luminescence was measured on a Tecan Spark plate reader (500 ms integration, one measurement per well).
# PTH1R [2] = experiment: cAMP accumulation, PTH1R; assay type: cell-based, human; settings: PTH1R B2AR ICL3
# Description: as §1, §2, §3
# PTH1R [3] = molecular target: T1, PTH1R; experiment: InsP1 accumulation, PTH1R; assay type: cell-based; settings: PTH1R Wild-Type
# Description: as §1, §2
# (§4) Resuspended cells were added 1:1 with a 2× concentration of ligand (70 µl final) into an opaque 96-well U-bottom plate (Greiner Bio-One). […] Plates were incubated at 37 °C for 2 h to stimulate InsP1 production. Reactions were quenched and processed for the InsP1 HTRF Assay (CisBio), following a protocol modified to achieve a higher signal to noise ratio. Fifteen microlitres of D2-conjugated InsP1 resuspended in lysis buffer (Cisbio) and 15 µl of terbium cryptate conjugated anti-InsP1 antibody resuspended in lysis buffer (Cisbio) were added to the stimulated cell mixture. Cell lysate was equilibrated for 1 h at ambient temperature with shaking (500 rpm). Reactions were transferred (4 × 20 µl) to a 384-well plate for technical replicates. […] FRET ratio for each reading was calculated as the ratio of acceptor emission to donor emission. InsP1 signal for a drug and transfection combination was calculated as the average FRET ratio of a given transfection condition without drug treatment subtracted from the average FRET ratio of a of a given transfection condition with drug treatment.
# PTH1R [4] = experiment: InsP1 accumulation, PTH1R; assay type: cell-based, human; settings: PTH1R B2AR ICL3
# Description: as §1, §2, §4
# β2AR = β2AR (Homo sapiens, UniProt P07550); experiment: Radiolabelled antagonist-binding assay (saturation); design: HA; expressed in transfected cells; host or cells: crude membrane extracts of transfected cells; Bmax / 125I-Cyanopindolol saturation binding signal: unit not given here; settings: for Bmax / fmol 125I-Cyanopindolol/mg sample: replicates 1-3 and Average; for fmol 125I-Cyanopindolol/mg sample, Fit: fitted curve;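 on all read-outs here: membranes expressing β2AR constructs, equilibrated with radioligand on ice, bound ligand retained on GF/C filters, Bmax normalized to membrane protein from a DC assay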
# [5] = [Isoproterenol] log(M) -8.30103
# [6] = [Isoproterenol] log(M) -9.30103
# [7] = [Isoproterenol] log(M) -6.30103
# [8] = [Isoproterenol] log(M) -7.30103
# [9] = Wild-Type + Gs-peptide, 125I-Cyanopindolol 0.000239059 nM
# [10] = Wild-Type + Gs-peptide, 125I-Cyanopindolol 0.0167722 nM
# [11] = Wild-Type + Gs-peptide, 125I-Cyanopindolol 0.0344858 nM
# [12] = Wild-Type + Gs-peptide, 125I-Cyanopindolol 0.073983 nM
# [13] = Wild-Type + Gs-peptide, 125I-Cyanopindolol 0.202201 nM
# [14] = Wild-Type + Gs-peptide, 125I-Cyanopindolol 0.415365 nM
# [15] = Wild-Type + Gs-peptide, 125I-Cyanopindolol 0.83063 nM
# [16] = Wild-Type + Gs-peptide, 125I-Cyanopindolol 1.64238 nM
compound,measurement,setting,value
"CC(C)NCC(O)c1ccc(O)c(O)c1 (stereo not drawn) [Isoproterenol, isoproterenol (+)-bitartrate salt]","cAMP (Isoproterenol/Forskolin Maximum), Average",PTH1R [1]; [Isoproterenol] log(M) -5,0.55
same,"cAMP (Isoproterenol/Forskolin Maximum), Average",PTH1R [1]; [Isoproterenol] log(M) -6,0.57
same,"cAMP (Isoproterenol/Forskolin Maximum), Average",PTH1R [1]; [Isoproterenol] log(M) -7,0.59
same,"cAMP (Isoproterenol/Forskolin Maximum), Average",PTH1R [1]; [Isoproterenol] log(M) -8,0.43
same,"cAMP (Isoproterenol/Forskolin Maximum), Average",PTH1R [1]; [5],0.44
same,"cAMP (Isoproterenol/Forskolin Maximum), Average",PTH1R [1]; [Isoproterenol] log(M) -9,0.10
same,"cAMP (Isoproterenol/Forskolin Maximum), Average",PTH1R [1]; [6],0.00476
same,"cAMP (Isoproterenol/Forskolin Maximum), Average",PTH1R [1]; [Isoproterenol] log(M) -10,-0.0216
same,"cAMP (Isoproterenol/Forskolin Maximum), Average",PTH1R [1]; [Isoproterenol] log(M) -11,-0.00704
same,"cAMP (Isoproterenol/Forskolin Maximum), Average",PTH1R [1]; [Isoproterenol] log(M) -12,-0.08
same,"cAMP (Isoproterenol/Forskolin Maximum), Average",PTH1R [2]; [Isoproterenol] log(M) -5,0.73
same,"cAMP (Isoproterenol/Forskolin Maximum), Average",PTH1R [2]; [Isoproterenol] log(M) -6,0.71
same,"cAMP (Isoproterenol/Forskolin Maximum), Average",PTH1R [2]; [Isoproterenol] log(M) -7,0.69
same,"cAMP (Isoproterenol/Forskolin Maximum), Average",PTH1R [2]; [Isoproterenol] log(M) -8,0.49
same,"cAMP (Isoproterenol/Forskolin Maximum), Average",PTH1R [2]; [5],0.39
same,"cAMP (Isoproterenol/Forskolin Maximum), Average",PTH1R [2]; [Isoproterenol] log(M) -9,0.0653
same,"cAMP (Isoproterenol/Forskolin Maximum), Average",PTH1R [2]; [6],0.0238
same,"cAMP (Isoproterenol/Forskolin Maximum), Average",PTH1R [2]; [Isoproterenol] log(M) -10,-0.0474
same,"cAMP (Isoproterenol/Forskolin Maximum), Average",PTH1R [2]; [Isoproterenol] log(M) -11,0.02
same,"cAMP (Isoproterenol/Forskolin Maximum), Average",PTH1R [2]; [Isoproterenol] log(M) -12,-0.0165
same,"IP1 (AU), Average",PTH1R [3]; [Isoproterenol] log(M) -5,0.44 AU
same,"IP1 (AU), Average",PTH1R [3]; [Isoproterenol] log(M) -6,0.45 AU
same,"IP1 (AU), Average",PTH1R [3]; [7],0.41 AU
same,"IP1 (AU), Average",PTH1R [3]; [Isoproterenol] log(M) -7,0.38 AU
same,"IP1 (AU), Average",PTH1R [3]; [8],0.22 AU
same,"IP1 (AU), Average",PTH1R [3]; [Isoproterenol] log(M) -8,0.0235 AU
same,"IP1 (AU), Average",PTH1R [3]; [5],0.04 AU
same,"IP1 (AU), Average",PTH1R [3]; [Isoproterenol] log(M) -9,-0.0234 AU
same,"IP1 (AU), Average",PTH1R [3]; [Isoproterenol] log(M) -10,-0.0216 AU
same,"IP1 (AU), Average",PTH1R [3]; [Isoproterenol] log(M) -11,-0.00815 AU
same,"IP1 (AU), Average",PTH1R [4]; [Isoproterenol] log(M) -5,0.32 AU
same,"IP1 (AU), Average",PTH1R [4]; [Isoproterenol] log(M) -6,0.35 AU
same,"IP1 (AU), Average",PTH1R [4]; [7],0.29 AU
same,"IP1 (AU), Average",PTH1R [4]; [Isoproterenol] log(M) -7,0.28 AU
same,"IP1 (AU), Average",PTH1R [4]; [8],0.15 AU
same,"IP1 (AU), Average",PTH1R [4]; [Isoproterenol] log(M) -8,-0.00248 AU
same,"IP1 (AU), Average",PTH1R [4]; [5],-0.00156 AU
same,"IP1 (AU), Average",PTH1R [4]; [6],0.05 AU
same,"IP1 (AU), Average",PTH1R [4]; [Isoproterenol] log(M) -10,-0.0155 AU
same,"IP1 (AU), Average",PTH1R [4]; [Isoproterenol] log(M) -11,0.00619 AU
[^125I](±)-cyanopindolol,125I-Cyanopindolol saturation binding signal,"β2AR; Wild-Type + 30 µM Gq-peptide, 0.0283 nM, Average",147.58
same,125I-Cyanopindolol saturation binding signal,"β2AR; Wild-Type + 30 µM Gq-peptide, 0.0283 nM, Fit",291.67
same,125I-Cyanopindolol saturation binding signal,"β2AR; Wild-Type + 30 µM Gq-peptide, 0.0283 nM, experiments 1-3",132.79 and 160.83 and 149.12
same,125I-Cyanopindolol saturation binding signal,"β2AR; Wild-Type + 30 µM Gq-peptide, 0.0474 nM, Average",534.47
same,125I-Cyanopindolol saturation binding signal,"β2AR; Wild-Type + 30 µM Gq-peptide, 0.0474 nM, Fit",446.28
same,125I-Cyanopindolol saturation binding signal,"β2AR; Wild-Type + 30 µM Gq-peptide, 0.0474 nM, experiments 1-3",334.07 and 648.49 and 620.85
same,125I-Cyanopindolol saturation binding signal,"β2AR; Wild-Type + 30 µM Gq-peptide, 0.10 nM, Average",767.43
same,125I-Cyanopindolol saturation binding signal,"β2AR; Wild-Type + 30 µM Gq-peptide, 0.10 nM, Fit",753.07
same,125I-Cyanopindolol saturation binding signal,"β2AR; Wild-Type + 30 µM Gq-peptide, 1.85 nM, Average",1934.67
same,125I-Cyanopindolol saturation binding signal,"β2AR; Wild-Type + 30 µM Gq-peptide, 1.85 nM, Fit",1934.64
same,Bmax,β2AR; Wild-Type + Gs-pep,2030.45 and 2045.98 and 1796.67
same,Bmax,"β2AR; Wild-Type + Gs-pep, mean",1957.70
same,"fmol 125I-Cyanopindolol/mg sample, Fit",β2AR; [9],0.00E+00 fmol/mg sample
same,fmol 125I-Cyanopindolol/mg sample,β2AR; [9],-0.7197 fmol/mg sample and 0.9706 fmol/mg sample and -1.162 fmol/mg sample
same,fmol 125I-Cyanopindolol/mg sample,"β2AR; Wild-Type + Gs-peptide, 125I-Cyanopindolol 0.000239059 nM, mean",-0.3038 fmol/mg sample
same,"fmol 125I-Cyanopindolol/mg sample, Fit",β2AR; [10],4.58E+02 fmol/mg sample
same,fmol 125I-Cyanopindolol/mg sample,β2AR; [10],412.161 fmol/mg sample and 473.943 fmol/mg sample and 418.268 fmol/mg sample
same,fmol 125I-Cyanopindolol/mg sample,"β2AR; Wild-Type + Gs-peptide, 125I-Cyanopindolol 0.0167722 nM, mean",434.79 fmol/mg sample
same,"fmol 125I-Cyanopindolol/mg sample, Fit",β2AR; [11],7.83E+02 fmol/mg sample
same,fmol 125I-Cyanopindolol/mg sample,β2AR; [11],735.259 fmol/mg sample and 854.634 fmol/mg sample and 743.19 fmol/mg sample
same,fmol 125I-Cyanopindolol/mg sample,"β2AR; Wild-Type + Gs-peptide, 125I-Cyanopindolol 0.0344858 nM, mean",777.694 fmol/mg sample
same,"fmol 125I-Cyanopindolol/mg sample, Fit",β2AR; [12],1.18E+03 fmol/mg sample
same,fmol 125I-Cyanopindolol/mg sample,β2AR; [12],1168.59 fmol/mg sample and 1355.16 fmol/mg sample and 1153.34 fmol/mg sample
same,fmol 125I-Cyanopindolol/mg sample,"β2AR; Wild-Type + Gs-peptide, 125I-Cyanopindolol 0.073983 nM, mean",1225.7 fmol/mg sample
same,"fmol 125I-Cyanopindolol/mg sample, Fit",β2AR; [13],1.61E+03 fmol/mg sample
same,fmol 125I-Cyanopindolol/mg sample,β2AR; [13],1680.99 fmol/mg sample and 1767.57 fmol/mg sample and 1409.36 fmol/mg sample
same,fmol 125I-Cyanopindolol/mg sample,"β2AR; Wild-Type + Gs-peptide, 125I-Cyanopindolol 0.202201 nM, mean",1619.31 fmol/mg sample
same,"fmol 125I-Cyanopindolol/mg sample, Fit",β2AR; [14],1.79E+03 fmol/mg sample
same,fmol 125I-Cyanopindolol/mg sample,β2AR; [14],1709.61 fmol/mg sample and 1882.35 fmol/mg sample and 1548.71 fmol/mg sample
same,fmol 125I-Cyanopindolol/mg sample,"β2AR; Wild-Type + Gs-peptide, 125I-Cyanopindolol 0.415365 nM, mean",1713.56 fmol/mg sample
same,"fmol 125I-Cyanopindolol/mg sample, Fit",β2AR; [15],1.88E+03 fmol/mg sample
same,fmol 125I-Cyanopindolol/mg sample,β2AR; [15],1837.2 fmol/mg sample and 2069.95 fmol/mg sample and 1681.21 fmol/mg sample
same,fmol 125I-Cyanopindolol/mg sample,"β2AR; Wild-Type + Gs-peptide, 125I-Cyanopindolol 0.83063 nM, mean",1862.79 fmol/mg sample
same,"fmol 125I-Cyanopindolol/mg sample, Fit",β2AR; [16],1.93E+03 fmol/mg sample
same,fmol 125I-Cyanopindolol/mg sample,β2AR; [16],2102.36 fmol/mg sample and 2003.58 fmol/mg sample and 1852.88 fmol/mg sample
same,fmol 125I-Cyanopindolol/mg sample,"β2AR; Wild-Type + Gs-peptide, 125I-Cyanopindolol 1.64238 nM, mean",1986.27 fmol/mg sample
same,125I-Cyanopindolol saturation binding signal,"β2AR; Wild-Type, 0.0283 nM, Average",144.50
same,125I-Cyanopindolol saturation binding signal,"β2AR; Wild-Type, 0.0283 nM, Fit",400.71
same,125I-Cyanopindolol saturation binding signal,"β2AR; Wild-Type, 0.0474 nM, Average",627.51
same,125I-Cyanopindolol saturation binding signal,"β2AR; Wild-Type, 0.0474 nM, Fit",590.99
same,125I-Cyanopindolol saturation binding signal,"β2AR; Wild-Type, 0.10 nM, Average",1200.07
same,125I-Cyanopindolol saturation binding signal,"β2AR; Wild-Type, 0.10 nM, Fit",964.14
same,125I-Cyanopindolol saturation binding signal,"β2AR; Wild-Type, 1.85 nM, Average",2740.91
same,125I-Cyanopindolol saturation binding signal,"β2AR; Wild-Type, 1.85 nM, Fit",2640.83
same,125I-Cyanopindolol saturation binding signal,"β2AR; Wild-Type, 1.85 nM, experiments 1-3",2770.91 and 2891.39 and 2560.43
same,"fmol 125I-Cyanopindolol/mg sample, Fit","β2AR; Wild-Type, 125I-Cyanopindolol 0.0198458 nM (Average)",3.84E+02 fmol/mg sample
same,"fmol 125I-Cyanopindolol/mg sample, Fit","β2AR; Wild-Type, 125I-Cyanopindolol 0.0420593 nM (Average)",7.28E+02 fmol/mg sample
same,"fmol 125I-Cyanopindolol/mg sample, Fit","β2AR; Wild-Type, 125I-Cyanopindolol 0.234223 nM (Average)",1.65E+03 fmol/mg sample
same,"fmol 125I-Cyanopindolol/mg sample, Fit","β2AR; Wild-Type, 125I-Cyanopindolol 0.468204 nM (Average)",1.86E+03 fmol/mg sample
same,"fmol 125I-Cyanopindolol/mg sample, Fit","β2AR; Wild-Type, 125I-Cyanopindolol 0.871756 nM (Average)",1.97E+03 fmol/mg sample
same,"fmol 125I-Cyanopindolol/mg sample, Fit","β2AR; Wild-Type, 125I-Cyanopindolol 1.70257 nM (Average)",2.02E+03 fmol/mg sample
same,Bmax,β2AR; Wild-Type,2241.12 and 1916.49 and 2106.37
same,Bmax,"β2AR; Wild-Type, mean",2087.99
